Where “and” joins values, the source holds several entries; their conditions need not be identical. Equal entries are not always repeated.
How the values were obtained:
[1] = Bioavailability in rat; format: ADME, organism-based; details: in vivo
[2] = Plasma clearance in rhesus monkey; format: ADME, organism-based; details: cercopithecidae, in vivo
[3] = Bioavailability in rhesus Monkey; format: ADME, organism-based, Macaca mulatta; details: in vivo
[4] = Effect was measured in male rats on distal femoral metaphysis bone mineral density; format: ADME; details: rat
[5] = Bioavailability in dog; format: ADME, organism-based, Canis lupus familiaris; details: in vivo
[6] = Partition coefficient (logP); format: physicochemical; details: octanol/water
[7] = Human plasma binding affinity was determined; format: ADME, cell-free; details: read-out: PB (converted)
[8] = Plasma clearance in rat; format: ADME, organism-based; details: in vivo
[9] = Plasma clearance in dog; format: ADME, organism-based, Canis lupus familiaris; details: in vivo
[10] = molecular target: Integrin alpha-V/beta-3 (Homo sapiens) (UniProt P05106+P06756); assay: In vitro binding affinity against integrin Alpha-v Beta3 receptor in SPA assay; format: protein-complex assay
[11] = Clearance value in dog; format: ADME, organism-based, Canis lupus familiaris; details: in vivo
[12] = Clearance value in rat; format: ADME, organism-based; details: in vivo
[13] = Clearance value in rhesus monkey; format: ADME, organism-based; details: cercopithecidae, in vivo
[14] = Bioavailability in rhesus monkey; format: ADME, organism-based; details: in vivo
[15] = Half life in dog; format: ADME, Canis lupus familiaris; details: in vivo

| Compound | bioavailability [1] [%] | clearance [2] [mL/min/kg] | bioavailability [3] [%] | DFMBMD [4] | bioavailability [5] [%] | logP [6] | fraction unbound [7] | clearance [8] [mL/min/kg] | clearance [9] [mL/min/kg] | SPAV3 [10] [nM] | clearance [11] [mL/min/kg] | clearance [12] [mL/min/kg] | clearance [13] [mL/min/kg] | bioavailability [14] [%] | half-life [15] [h] |
| --- | --- | --- | --- | --- | --- | --- | --- | --- | --- | --- | --- | --- | --- | --- | --- |
| COc1ccc([C@H](CC(=O)O)N2CCN(CCCc3ccc4c(n3)N[C@@H](C)CC4)C2=O)cn1 | 50 | 3.5 | 75 | 137 mg/Ecm and 147.9 mg/Ecm and 161 mg/Ecm and 141.1 mg/Ecm and 156.6 mg/Ecm | 83 | 0.69 | 0.05 | 41 | 1.7 | 0.11 | – | – | – | – | – |
| COc1ccc([C@H](CC(=O)O)N2CCN(CCCc3ccc4c(n3)NCCC4)C2=O)cn1 | – | – | – | 133 mg/Ecm and 145 mg/Ecm and 157.2 mg/Ecm | – | – | 0.12 | – | – | 0.08 | 6.4 | 47 | 9 | 74 | – |
| COc1ccc([C@H](CC(=O)O)N2CCN(CCCc3ccc4c(n3)N[C@H](C)CC4)C2=O)cn1 | – | – | – | – | – | 0.56 | 0.08 | – | – | 0.11 | – | – | – | – | – |
| COc1ccc([C@H](CC(=O)O)N2CCN(CCCc3nc4c(cc3C)CCCN4)C2=O)cn1 | – | – | – | – | 55 | 0.62 | 0.22 | – | 18 | 0.13 | – | – | – | – | 2.2 |

Reference: ChEMBL document CHEMBL1137032, “Nonpeptide alpha V beta 3 antagonists. Part 10: In vitro and in vivo evaluation of a potent 7-methyl substituted tetrahydro-[1,8]naphthyridine derivative” (Bioorg Med Chem Lett, 2004)
